Results published in patent US7517901B2, “p38 MAP kinase inhibitors and methods for using the same” (Roche Palo Alto LLC, priority 2005, dated 2009).

Experiments:
[1] = target: T1, p38 MAP kinase (Homo sapiens, UniProt Q16539); experiment: p38 (MAP) kinase in vitro assay (transfer of γ-33P from ATP to Myelin Basic Protein); format: biochemical; details: phosphorylated recombinant p38 MAP kinase, MBP substrate, γ-33P-ATP, 30° C.
T1 construct: made in house; host or cells: E. coli (co-expressed with SEK-1 and MEKK)
T1 sequence (Q16539 whole entry): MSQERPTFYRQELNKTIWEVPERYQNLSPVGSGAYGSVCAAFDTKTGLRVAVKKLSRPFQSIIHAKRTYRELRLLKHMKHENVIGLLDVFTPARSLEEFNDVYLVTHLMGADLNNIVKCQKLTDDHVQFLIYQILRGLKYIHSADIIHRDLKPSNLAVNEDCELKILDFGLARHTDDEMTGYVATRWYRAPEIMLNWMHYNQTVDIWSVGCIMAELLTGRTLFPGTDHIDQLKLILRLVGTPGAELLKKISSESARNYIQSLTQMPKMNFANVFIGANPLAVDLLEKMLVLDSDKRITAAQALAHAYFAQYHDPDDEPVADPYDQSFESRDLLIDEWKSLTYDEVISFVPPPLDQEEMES
Protocol: This example illustrates a p38 (MAP) kinase in vitro assay useful for evaluating the compounds of the invention.
The p38 MAP kinase inhibitory activity of compounds of this invention in vitro was determined by measuring the transfer of the γ-phosphate from γ-^33P-ATP by p-38 kinase to Myelin Basic Protein (MBP), using a minor modification of the method described in Ahn, et al., J. Biol. Chem. 266:4220-4227 (1991).
The phosphorylated form of the recombinant p38 MAP kinase was co-expressed with SEK-1 and MEKK in E. Coli (see, Khokhlatchev, et al., J. Biol. Chem. 272:11057-11062 (1997)) and then purified by affinity chromatography using a Nickel column.
The phosphorylated p38 MAP kinase was diluted in kinase buffer (20 mM 3-(N-morpholino)propanesulfonic acid, pH 7.2, 25 mM β-glycerol phosphate, 5 mM ethylene glycol-bis(beta-aminoethyl ether)-N,N,N′,N′-tetraacetic acid, 1 mM sodium ortho-vanadate, 1 mM dithiothreitol, 40 mM magnesium chloride). Test compound dissolved in DMSO or only DMSO (control) was added and the samples were incubated for 10 min at 30° C. The kinase reaction was initiated by the addition of a substrate cocktail containing MBP and γ-^33P-ATP. […] The phosphorylated MBP was then separated from the residual γ-^33P-ATP using a phosphocellulose membrane (Millipore, Bedford, Mass.) and quantitated using a scintillation counter (Packard, Meriden, Conn.).

| melting point | IC50 [1] | Compound |
| --- | --- | --- |
| 187 to 189 °C | – | O=S(=O)(Nc1ccc2c(-c3ccccc3Cl)n[nH]c2c1)c1cccc(Cl)c1 [Compound 12, 3-Chloro-N-[3-(2-chloro-phenyl)-1H-indazol-6-yl]-benzenesulfonamide] |
| – | ~20 nM | O=S(=O)(Nc1ccc2c(-c3ccccc3Cl)n[nH]c2c1)c1cccc(Cl)c1F [Compound 46, 3-Chloro-N-[3-(2-chloro-phenyl)-1H-indazol-6-yl]-2-fluoro-benzenesulfonamide] |
